According to US20260008793A1, “IONIZABLE CATIONIC LIPIDS INCORPORATING SILICON” (ALDEXCHEM KFT., priority 2022, published 2026):

What was measured:
[1] = LNP size, PDI and zeta potential by Dynamic Light Scattering (Method A); format: physicochemical; conditions: LNP formulated by Method A; for Zeta potential (mV): 1xPBS pH 7.4; for PDI / Size (nm): DLS; for Size (nm): Luciferase-mRNA loaded
Description: (§1) The synthesized lipids were tested in term of in vitro transfection efficacy and toxicity on HeLa cells. In order to perform the mentioned biological tests, appropriate LNPs had to be formulated from the synthesized lipids. The formulation technique was different in Method A and B. The particle size, PDI and zeta potential of resulting LNPs were determined by means of Dynamic Light Scattering technique (DLS). Prior to biological testing the encapsulation efficiency (EE) of the loaded LNPs was determined by using RiboGreen RNA assay. In case of Method A Luciferase-mRNA while in case of Method B GFP-mRNA was transfected into the cells. In parallel with the transfection experiments, toxicity of the investigated LNPs was determined, in case of Method A resazurin assay while in case of Method B MTT assay was used. In the case of some lipids, the apparent pKa in LNPs was determined by using TNS titration based on the method described: Angew Chem Int Ed Engl. 2012, 51 (34), 8529-8533, doi: 10.1002/anie.201203263).
• 1. If needed, prepare stock solutions by solving known amounts of lipid powder into an appropriate solvent. The recommended solvent is Ethanol and the recommended concentration is typically in the range 10-50 mM. Higher concentrations are preferred to allow flexibility on mRNA-LNP concentration. • 2. Remove the lipid stock solutions from the −20° C. freezer. For long-term storage, −80° C. is used. • 3. Check the vials for precipitation, DOPE (CAS #4004-05-1) (20 mM) and DSPE-PEG (CAS #474922-26-4) (5 mM) may need a 5-30 minute incubation step at 37° C. with intermittent vortexing to resuspend all contents. […] As a last resort, lipids may be heated to 50° C. to resuspend, time should be kept as short as possible to prevent oxidation or other modifying or degradative processes. • 4. Mix the lipids by vortexing for 2 minutes. • 5. […] Cooling the solution prevent excessive evaporation of ethanol or similar solvents upon opening. • 6. Meanwhile, thaw the RNA samples, including the latest SecNLuc control, by inserting the frozen tube in a room temperature aluminium block. • 7. Prepare for each LNP-formulation with identical mRNA component, an RNA master mix according to Table 1 below in a fresh tube. Use of a master mix allows more precise comparison of lipid formulations relative to each other. Split the master mix over a number of fresh tubes equal to the number of samples+controls. Each tube contains 375 μl of mRNA in 10 mM Citrate pH 4.0. • 8. Prepare for each LNP formulation with identical lipid composition a Lipid master mix according to Table 1 below in a fresh tube, exclude the lipid of interest. Use of a master mix allows more precise comparison of the novel ionizable lipid relative to each other. Split the master mix over a number of fresh tubes equal to the number of samples+controls. Each tube contains 65.5 μl of lipid master mix. • 9. Add the ionizable lipid of interest to the equally divide lipid master mix. Mix well by pipetting up and down. Label the tube according to the ionizable lipid used. • 10. Power on the ‘L 1 formulation machine’ (L 1 FM) and allow it to do a calibration of motor positions.
• 18. Fill a fresh syringe (C) through a blunt 18 G stainless steel needle with the previously prepared RNA mixture of step 6. The volume should be approximately […] of total formulation volume+25 μl (dead-volume). Make sure to remove all air bubbles by tapping. • 19. Fill a fresh syringe (D) through a blunt 18 G stainless steel needle with the Lipid master mix. The volume should be approximately 35% of total formulation volume+25 μl (dead-volume). Again, Make sure to remove all bubbles. • 20. Attach the syringes in the correct orientation, syringe A on the left and syringe B on the right • 21. Load the ‘Receiving station’ with appropriate sized collection containers (2 ml Eppendorf tubes). • 22. Press the microfluidic chip to the back of the machine with your thumb and hold, press the ‘Button 1’ (40 g). […]

[2] = Encapsulation efficiency, RiboGreen RNA assay (Method A); format: physicochemical; conditions: LNP formulated by Method A
Description: as §1
• 1. Preparation of sample stock solutions: In the top row of the 96-well plate (Row A in the plate), add 297 μL of TE buffer pH 7.4 to a single well for each sample plus a single well for a PBS blank using a multichannel pipette. • 2. Add 3 μL of sample (at 0.5 mg/ml) to these wells for a final volume of 300 μL. Add 3 μL of PBS to the blank well. Pipette to mix. This is your stock solution for each sample. The final RNA concentration of these stock solutions should be approximately 4-7 μg/mL. • 3. mRNA-LNP sample setup: • a. Add 50 μL of TE buffer pH 7.5 to the two wells directly below each sample (Rows B and C in the plate). • b. Add 50 μL of sample stock solution from Row A into the wells in Rows B and C (this assay is run in duplicate. All liquid handling should be done using a multichannel pipette). • c. Add 50 μL of Triton buffer to the wells in Rows D and E (in the plate) below each sample. • d. Add 50 μL of sample stock solution from Row A into the wells in Rows D and E. • 4. RiboGreen RNA standard curve setup: Dilute the RNA standard to produce an RNA stock at a final concentration of 20 μg/mL in TE buffer pH 7.4. The final volume should be 150 μL. Set up a standard curve (in duplicate) as using the RNA stock (20 μg/mL siRNA), TE buffer pH 7.5, and Triton buffer according the Table 2 below.
• 5. Once samples and standard curve are plated, incubate the plate at 37° C. for 10 min to lyse mRNA-LNP in the presence of Triton X-100. • 6. Meanwhile, prepare RiboGreen Solution: Sum the total number of sample wells and standard curve wells. Add three to this number, and multiply the total by 100. This is the total volume, in μL, of RiboGreen Solution needed for this assay. In a 15 mL RNAse-free Falcon tube, dilute the RiboGreen Reagent 1:100 into TE buffer pH 7.5 to the total volume calculated. • 7. Addition of RiboGreen Solution and sample readings: Remove a 96-well plate from 37° C. incubator; let it cool to room temperature as RiboGreen binding is somewhat temperature dependent. Add 100 μL of RiboGreen Solution to each well. Pop any air bubbles with a needle. Read using fluorescent plate reader (excitation=480, emission=525). • 8. Sample analysis: Use the data generated by the RiboGreen standard curve to calculate the concentration of mRNA. Transfection Efficiency with Luciferase-mRNA (Method A)

CCCCCCCCOC(CCCCCCCC)O[Si](C)(C)OCCCCCCN(CCCCO)CCCCCCOC(=O)C(CCCCCC)CCCCCCCC (stereo not shown) [Example 143, 7-(4-hydroxybutyl)-15,15-dimethyl-17-octyl-14,16,18-trioxa-7-aza-15-silahexacosyl 2-hexyldecanoate]
Zeta potential (mV) [1]: −5.5 mV
PDI [1]: 0.17
Size (nm) [1]: 159.7 nm
EE (%) [2]: 95%

CCCCCCCCCC(OCCCCCC)O[Si](C)(C)OCCCCCCN(CCCCO)CCCCCCOC(=O)C(CCCCCC)CCCCCCCC (stereo not shown) [Example 144, 18-(4-hydroxybutyl)-10,10-dimethyl-8-nonyl-7,9,11-trioxa-18-aza-10-silatetracosan-24-yl 2-hexyldecanoate]
Zeta potential (mV) [1]: −10.5 mV
PDI [1]: 0.15
Size (nm) [1]: 133.9 nm
EE (%) [2]: 97%

CCCCCCCCCCOC(CCCCC)O[Si](C)(C)OCCCCCCN(CCCCO)CCCCCCOC(=O)C(CCCCCC)CCCCCCCC (stereo not shown) [Example 145, 7-(4-hydroxybutyl)-15,15-dimethyl-17-pentyl-14,16,18-trioxa-7-aza-15-silaoctacosyl 2-hexyldecanoate]
Zeta potential (mV) [1]: −7.7 mV
PDI [1]: 0.16
Size (nm) [1]: 143.3 nm
EE (%) [2]: 97%

CCCCCCCCOC(CCCCCCC)O[Si](C)(C)OCCCCCN(CCCCO)CCCCCCOC(=O)C(CCCCCC)CCCCCCCC (stereo not shown) [Example 146, 16-heptyl-7-(4-hydroxybutyl)-14,14-dimethyl-13,15,17-trioxa-7-aza-14-silapentacosyl 2-hexyldecanoate]
Zeta potential (mV) [1]: −11.0 mV
PDI [1]: 0.07
Size (nm) [1]: 116.7 nm
EE (%) [2]: 97%

CCCCCCCCSC(CCCCCCC)O[Si](C)(C)OCCCCCCN(CCCCO)CCCCCCOC(=O)C(CCCCCC)CCCCCCCC (stereo not shown) [Example 147, 17-heptyl-7-(4-hydroxybutyl)-15,15-dimethyl-14,16-dioxa-18-thia-7-aza-15-silahexacosyl 2-hexyldecanoate]
Zeta potential (mV) [1]: −7.5 mV
PDI [1]: 0.14
Size (nm) [1]: 146.8 nm
EE (%) [2]: 96%

CCCCCCCCCCSC(CCCC)C(=O)OCCCCCCN(CCCCO)CCCCCC(OCCCCCCCC)O[Si](C)(C)CCCCCCCC (stereo not shown) [Example 166, 6-((6-((dimethyl(octyl)silyl)oxy)-6-(octyloxy)hexyl)(4-hydroxybutyl)amino)hexyl 2-(decylthio)hexanoate]
Zeta potential (mV) [1]: −13.01 mV
PDI [1]: 0.185
Size (nm) [1]: 223.6 nm
EE (%) [2]: 94%

CCCCCCCCCCSC(CCCC)C(=O)OCCCCCCN(CCCCO)CCCCCC(OCCCCCCCC)O[Si](C)(C)OCCCCCCCC (stereo not shown) [Example 168, 7-(4-hydroxybutyl)-15,15-dimethyl-13-(octyloxy)-14,16-dioxa-7-aza-15-silatetracosyl 2-(decylthio)hexanoate]
Zeta potential (mV) [1]: −11.79 mV
PDI [1]: 0.085
Size (nm) [1]: 224.2 nm
EE (%) [2]: 96%

CCCCCCCCCCSC(CCCC)C(=O)OCCCCCCN(CCCCO)CCCCCCOC(CCCCCCC)O[Si](C)(C)OCCCCCCCC (stereo not shown) [Example 169, 15-heptyl-7-(4-hydroxybutyl)-17,17-dimethyl-14,16,18-trioxa-7-aza-17-silahexacosyl 2-(decylthio)hexanoate]
Zeta potential (mV) [1]: −13.9 mV
PDI [1]: 0.09
Size (nm) [1]: 159.7 nm
EE (%) [2]: 95%

CCCCCCCCCCSC(CCCC)C(=O)OCCCCCCN(CCCCO)CCCCCC(OCCCCCCCC)O[Si](C)(C)O[Si](C)(C)CCCCCCCC (stereo not shown) [Example 170, 6-((4-hydroxybutyl)(6-(octyloxy)-6-((1,1,3,3-tetramethyl-3-octyldisiloxaneyl)oxy)hexyl)amino)hexyl 2-(decylthio)hexanoate]
Zeta potential (mV) [1]: −14.68 mV
PDI [1]: 0.210
Size (nm) [1]: 207.5 nm
EE (%) [2]: 94%

CCCCCCCCCCSC(CCCC)C(=O)OCCCCCCN(CCCCO)CCCCCCOC(CCCCCCC)O[Si](C)(C)O[Si](C)(C)CCCCCCCC (stereo not shown) [Example 171, 15-heptyl-7-(4-hydroxybutyl)-17,17,19,19-tetramethyl-14,16,18-trioxa-7-aza-17,19-disilaheptacosyl 2-(decylthio)hexanoate]
Zeta potential (mV) [1]: −12.04 mV
PDI [1]: 0.017
Size (nm) [1]: 178.9 nm
EE (%) [2]: 95%

CCCCCCCCCCSC(CCCC)C(=O)OCCCCCCN(CCCCO)CCCCCC(OCCCCCCCC)O[Si](C)(C)O[Si](C)(C)OCCCCCCCC (stereo not shown) [Example 172, 6-((4-hydroxybutyl)(6-(octyloxy)-6-((1,1,3,3-tetramethyl-3-(octyloxy)disiloxaneyl)oxy)hexyl)amino)hexyl 2-(decylthio)hexanoate]
Zeta potential (mV) [1]: −9.92 mV
PDI [1]: 0.07
Size (nm) [1]: 151.7 nm
EE (%) [2]: 97%

CCCCCCCCCCSC(CCCC)C(=O)OCCCCCCN(CCCCO)CCCCCCOC(CCCCCCC)O[Si](C)(C)O[Si](C)(C)OCCCCCCCC (stereo not shown) [Example 173, 15-heptyl-7-(4-hydroxybutyl)-17,17,19,19-tetramethyl-14,16,18,20-tetraoxa-7-aza-17,19-disilaoctacosyl 2-(decylthio)hexanoate]
Zeta potential (mV) [1]: −11.32 mV
PDI [1]: 0.033
Size (nm) [1]: 180.5 nm
EE (%) [2]: 97%

CCCCCCCCCCSC(CCCC)C(=O)OCCCCCCN(CCCCO)CCCCCC(OCCCCCCCC)O[Si](C)(C)OCC(CCCCCC)CCCCCCCC (stereo not shown) [Example 174, 18-hexyl-7-(4-hydroxybutyl)-15,15-dimethyl-13-(octyloxy)-14,16-dioxa-7-aza-15-silahexacosyl 2-(decylthio)hexanoate]
Zeta potential (mV) [1]: −15.5 mV
PDI [1]: 0.159
Size (nm) [1]: 222.6 nm
EE (%) [2]: 96%
